In US20260234115A1, “LIPID COMPOUNDS, COMPOSITIONS, AND USES THEREOF” (Liberate Bio, Inc., priority 2023, published 2026):
Marks after values point to notes of the source that are not given here.

Tested on: mouse organs
Experiment: In vivo activity screening in mice: organ mean total flux (p/s) of luciferase activity after injection of F2 LNP pools (Table 6, FIG. 7A-7C)
Conditions: luciferase mRNA
Experimental: Small rodent biodistribution studies were performed in mice (e.g., C57BL/6J, Balb-c, CD-1, etc.). For evaluating LNP biodistribution and tissue activity upon systemic administration, C57BL/6J mice received dose administration by single intravenous injection via tail vein with LNP formulations (individual or pooled) in PBS, at different dose (0.25-3 mg/kg) levels of firefly luciferase mRNA. At predetermined time points (4-6 hours post-injection), the animals were anesthetized via isoflurane and subjected to in-life imaging sessions for bioluminescence using an In Vivo Imaging System (IVIS). All animals were dosed with D-Luciferin at 15 mg/mL via subcutaneous (SC) injection at 0.2 mL/animal. Animals had their abdomen hair shaved using an animal trimmer. They were then placed so their shaved belly faced up toward the IVIS camera. Whole body imaging sessions were performed 10-15 minutes following D-Luciferin administration.
For in detail organ distribution and activity of LNP formulations, ex vivo imaging sessions were also performed. All animals received SC D-Luciferin and were then euthanized by isoflurane overdose, followed by cardiac perfusion with saline. Following perfusion, the organs were collected and subjected to IVIS imaging for luminescence within 10-15 minutes of D-Luciferin injection.
All IVIS images were processed with a computer software to identify the regions of interests for individual organs to detect the total flux (p/s) values as luminescence quantification. Then the total flux values were graphed to evaluate the in vivo activity in each collected organ.
Small rodent biodistribution studies were performed in mice according to the General Study Protocols in Example 3(a). LNPs incorporating lipid compounds were prepared in Formulation F2, with MC3 as lipid compound (Cayman Chemical) prepared using Formulation F2 for comparison. LNP pools (with firefly luciferase mRNA encapsulated) were injected into mice at varying doses, and organ mean total flux (p/s) results (measuring luciferase activity) were then collected according to Example 3(a).
LNPs comprising MC3 used as a control and for cross-mouse comparison. Dose is in mg/kg; LC is Lipid Compound according to Table 1.
Additional screening results for Compounds 7, 13, 14, 26, 33, 38, 39, 40, 48, 60, 61, 89, 103, and 109 in spleen, femur, and muscle are shown in FIG. 7A, FIG. 7B, and FIG. 7C, with MC3 as a used as a control for comparison.

Row | Compound | Organ Mean Total Flux Femur (Mouse 6, dose 0.5 mg/kg) | Organ Mean Total Flux Heart (Mouse 6, dose 0.5 mg/kg) | Organ Mean Total Flux Kidney (Mouse 6, dose 0.5 mg/kg) | Organ Mean Total Flux Liver (Mouse 6, dose 0.5 mg/kg) | Organ Mean Total Flux Lung (Mouse 6, dose 0.5 mg/kg) | Organ Mean Total Flux Muscle (Mouse 6, dose 0.5 mg/kg) | Organ Mean Total Flux Pancreas (Mouse 6, dose 0.5 mg/kg) | Organ Mean Total Flux Spleen (Mouse 6, dose 0.5 mg/kg) | other results
1 | CCCCC/C=C\CCOC(=O)CCCCCCC(=O)OCC(COC(=O)CCCCCCC(=O)OCC/C=C\CCCCC)(COC(=O)CCCCCCC(=O)OCC/C=C\CCCCC)COC(=O)CCC(CCCCCC)OC(=O)NCCN(C)CC (centres unmarked) [Compound 29, O8-[2-[4-[2-[ethyl(methyl)amino]ethylcarbamoyloxy]decanoyloxymethyl]-3-[8-[(Z)-non-3-enoxy]-8-oxo-octanoyl]oxy-2-[[8-[(Z)-non-3-enoxy]-8-oxooctanoyl]oxymethyl]propyl]O1-[(Z)-non-3-enyl]octanedioate] | 4.2 p/s (×10^6) | 3.9 p/s (×10^6) | 3.2 p/s (×10^6) | 1913 p/s (×10^6) | 11.4 p/s (×10^6) | 10.3 p/s (×10^6) | 1.4 p/s (×10^6) | 3.3 p/s (×10^6) | –
2 | CCCCC/C=C\CCOC(=O)CCCCCCC(=O)OCC(COC(=O)CCCCCCC(=O)OCC/C=C\CCCCC)(COC(=O)CCCCCCC(=O)OCC/C=C\CCCCC)COC(=O)CCC(CCCCCC)OC(=O)OCCCN1CCCC1 (centres unmarked) [Compound 31, O8-[2,2-bis[[8-[(Z)-non-3-enoxy]-8-oxo-octanoyl]oxymethyl]-3-[4-(3-pyrrolidin-1-ylpropoxycarbonyloxy)decanoyloxy]propyl]O1-[(Z)-non-3-enyl]octanedioate] | – | – | – | – | – | – | – | – | Organ Mean Total Flux Femur (Mouse 5, dose 0.5 mg/kg): 0.9 p/s (×10^6); Organ Mean Total Flux Heart (Mouse 5, dose 0.5 mg/kg): 0.1 p/s (×10^6); Organ Mean Total Flux Kidney (Mouse 5, dose 0.5 mg/kg): 0.1 p/s (×10^6); Organ Mean Total Flux Liver (Mouse 5, dose 0.5 mg/kg): 26.8 p/s (×10^6); Organ Mean Total Flux Lung (Mouse 5, dose 0.5 mg/kg): 1.2 p/s (×10^6); Organ Mean Total Flux Muscle (Mouse 5, dose 0.5 mg/kg): 1.0 p/s (×10^6); Organ Mean Total Flux Pancreas (Mouse 5, dose 0.5 mg/kg): 0.2 p/s (×10^6); Organ Mean Total Flux Spleen (Mouse 5, dose 0.5 mg/kg): 2.0 p/s (×10^6)
3 | CCCCCCCCOC(=O)CCCCCCC(=O)OCC(COC(=O)CCCCCCC(=O)OCCCCCCCC)(COC(=O)CCCCCCC(=O)OCCCCCCCC)COC(=O)CCC(CCCCCC)OC(=O)NCCN1CCCC1 (centres unmarked) [Compound 33, O8-[2,2-bis[(8-octoxy-8-oxo-octanoyl)oxymethyl]-3-[4-(2-pyrrolidin-1-ylethylcarbamoyloxy)decanoyloxy]propyl]O1-octyl octanedioate] | 21.3 p/s (×10^6) | 2.8 p/s (×10^6) | 3.0 p/s (×10^6) | 1024 p/s (×10^6) | 16.9 p/s (×10^6) | 53.7 p/s (×10^6) | 9.2 p/s (×10^6) | 30.1 p/s (×10^6) | –
4 | CCCCCCCCOC(=O)CCCCCC(=O)OCC(COC(=O)CCCCCC(=O)OCCCCCCCC)(COC(=O)CCCCCC(=O)OCCCCCCCC)COC(=O)CCC(CCCCCC)OC(=O)NCCN1CCCC1 (centres unmarked) [Compound 34, O7-[2,2-bis[(7-octoxy-7-oxo-heptanoyl)oxymethyl]-3-[4-(2-pyrrolidin-1-ylethylcarbamoyloxy)decanoyloxy]propyl]O1-octyl heptanedioate] | 10.5 p/s (×10^6) | 3.3 p/s (×10^6) | 6.7 p/s (×10^6) | 1610 p/s (×10^6) | 20.2 p/s (×10^6) | 28.3 p/s (×10^6) | 12.8 p/s (×10^6) | 39.4 p/s (×10^6) | –
5 | CCCCCCCCCCOC(=O)CCCCCCC(=O)OCC(COC(=O)CCCCCCC(=O)OCCCCCCCCCC)(COC(=O)CCCCCCC(=O)OCCCCCCCCCC)COC(=O)CCC(CCCCCC)OC(=O)NCCN1CCCC1 (centres unmarked) [Compound 35, O8-[2,2-bis[(8-decoxy-8-oxo-octanoyl)oxymethyl]-3-[4-(2-pyrrolidin-1ylethylcarbamoyloxy)decanoyloxy]propyl]O1-decyloctanedioate] | 4.2 p/s (×10^6) | 1.3 p/s (×10^6) | 1.3 p/s (×10^6) | 850.3 p/s (×10^6) | 11.0 p/s (×10^6) | 15.5 p/s (×10^6) | 2.5 p/s (×10^6) | 5.4 p/s (×10^6) | –
6 | CCCCCCCCCCOC(=O)CCCCCC(=O)OCC(COC(=O)CCCCCC(=O)OCCCCCCCCCC)(COC(=O)CCCCCC(=O)OCCCCCCCCCC)COC(=O)CCC(CCCCCC)OC(=O)NCCN1CCCC1 (centres unmarked) [Compound 36, O7-[2,2-bis[(7-decoxy-7-oxo-heptanoyl)oxymethyl]-3-[4-(2-pyrrolidin-1-ylethylcarbamoyloxy)decanoyloxy]propyl]O1-decyl heptanedioate] | 3.6 p/s (×10^6) | 3.7 p/s (×10^6) | 2.7 p/s (×10^6) | 2330 p/s (×10^6) | 16.5 p/s (×10^6) | 6.0 p/s (×10^6) | 1.2 p/s (×10^6) | 6.1 p/s (×10^6) | –
7 | CCCCCCCC(C)OC(=O)CCCCCCC(=O)OCC(COC(=O)CCCCCCC(=O)OC(C)CCCCCCC)(COC(=O)CCCCCCC(=O)OC(C)CCCCCCC)COC(=O)CCC(CCCCCC)OC(=O)NCCN1CCCC1 (centres unmarked) [Compound 37, O1-[2,2-bis[[8-(1-methyloctoxy)-8-oxo-octanoyl]oxymethyl]-3-[4-(2-pyrrolidin-1-ylethylcarbamoyloxy)decanoyloxy]propyl]O8-(1-methyloctyl) octanedioate] | – | – | – | – | – | – | – | – | Organ Mean Total Flux Femur (Mouse 11, dose 0.5 mg/kg): 2.2 p/s (×10^6); Organ Mean Total Flux Heart (Mouse 11, dose 0.5 mg/kg): 1.9 p/s (×10^6); Organ Mean Total Flux Kidney (Mouse 11, dose 0.5 mg/kg): 0.8 p/s (×10^6); Organ Mean Total Flux Liver (Mouse 11, dose 0.5 mg/kg): 1737 p/s (×10^6); Organ Mean Total Flux Lung (Mouse 11, dose 0.5 mg/kg): 10.5 p/s (×10^6); Organ Mean Total Flux Muscle (Mouse 11, dose 0.5 mg/kg): 5.2 p/s (×10^6); Organ Mean Total Flux Pancreas (Mouse 11, dose 0.5 mg/kg): 0.6 p/s (×10^6); Organ Mean Total Flux Spleen (Mouse 11, dose 0.5 mg/kg): 2.5 p/s (×10^6)
8 | CCCCCCCC(C)OC(=O)CCCCCC(=O)OCC(COC(=O)CCCCCC(=O)OC(C)CCCCCCC)(COC(=O)CCCCCC(=O)OC(C)CCCCCCC)COC(=O)CCC(CCCCCC)OC(=O)NCCN1CCCC1 (centres unmarked) [Compound 38, O1-[2,2-bis[[7-(1-methyloctoxy)-7-oxo-heptanoyl]oxymethyl]-3-[4-(2-pyrrolidin-1-ylethylcarbamoyloxy)decanoyloxy]propyl]O7-(1-methyloctyl) heptanedioate] | 9.8 p/s (×10^6) | 11.0 p/s (×10^6) | 8.1 p/s (×10^6) | 6770 p/s (×10^6) | 33.3 p/s (×10^6) | 23.5 p/s (×10^6) | 2.6 p/s (×10^6) | 27.2 p/s (×10^6) | –
9 | CCCCCCCCC(C)OC(=O)CCCCCCC(=O)OCC(COC(=O)CCCCCCC(=O)OC(C)CCCCCCCC)(COC(=O)CCCCCCC(=O)OC(C)CCCCCCCC)COC(=O)CCC(CCCCCC)OC(=O)NCCN1CCCC1 (centres unmarked) [Compound 39, O1-[2,2-bis[[8-(1-methylnonoxy)-8-oxo-octanoyl]oxymethyl]-3-[4-(2-pyrrolidin-1-ylethylcarbamoyloxy)decanoyloxy]propyl]O8-(1-methylnonyl) octanedioate] | – | – | – | – | – | – | – | – | Organ Mean Total Flux Femur (Mouse 11, dose 0.5 mg/kg): 2.6 p/s (×10^6); Organ Mean Total Flux Heart (Mouse 11, dose 0.5 mg/kg): 6.5 p/s (×10^6); Organ Mean Total Flux Kidney (Mouse 11, dose 0.5 mg/kg): 2.3 p/s (×10^6); Organ Mean Total Flux Liver (Mouse 11, dose 0.5 mg/kg): 3390 p/s (×10^6); Organ Mean Total Flux Lung (Mouse 11, dose 0.5 mg/kg): 19.6 p/s (×10^6); Organ Mean Total Flux Muscle (Mouse 11, dose 0.5 mg/kg): 11.0 p/s (×10^6); Organ Mean Total Flux Pancreas (Mouse 11, dose 0.5 mg/kg): 1.1 p/s (×10^6); Organ Mean Total Flux Spleen (Mouse 11, dose 0.5 mg/kg): 2.9 p/s (×10^6)
10 | CCCCCCCCC(C)OC(=O)CCCCCC(=O)OCC(COC(=O)CCCCCC(=O)OC(C)CCCCCCCC)(COC(=O)CCCCCC(=O)OC(C)CCCCCCCC)COC(=O)CCC(CCCCCC)OC(=O)NCCN1CCCC1 (centres unmarked) [Compound 40, O1-[2,2-bis[[7-(1-methylnonoxy)-7-oxo-heptanoyl]oxymethyl]-3-[4-(2-pyrrolidin-1-ylethylcarbamoyloxy)decanoyloxy]propyl]O7-(1-methylnonyl)heptanedioate] | 10.9 p/s (×10^6) | 6.0 p/s (×10^6) | 5.1 p/s (×10^6) | 3230 p/s (×10^6) | 27.7 p/s (×10^6) | 34.4 p/s (×10^6) | 4.6 p/s (×10^6) | 6.4 p/s (×10^6) | –
